Experimental data as given in patent US7547660B2, “Phenyl-substituted 4-hydroxy-tetrahydropyridones” (Bayer Aktiengesellschaft, priority 2000, dated 2009).

Legend:
Assay type in all cases: in vivo
Alopecurus [1] = assay: Pre-emergence test, greenhouse; details: after three weeks
Protocol: (§1) • Solvent: 5 parts by weight of acetone • Emulsifier: 1 part by weight of alkylaryl polyglycol ether
(§2) To produce a suitable preparation of active compound, 1 part by weight of active compound is mixed to the stated amount of solvent, the stated amount of emulsifier is added and the concentrate is diluted with water to the desired concentration.
(§3) Seeds of the test plants are sown in normal soil. After about 24 hours, the soil is sprayed with the preparation of active compounds such that the particular amounts of active compound desired are applied per unit area. The concentration of the spray liquor is chosen such that the particular amounts of active compound desired are applied in 1 000 l of water/ha.
(§4) After three weeks, the degree of damage to the plants is rated in % damage in comparison to the development of the untreated control.
(§5) The figures denote: • 0%=no effect (like untreated control) • 100%=total destruction

Echinochloa [2] = assay: Pre-emergence test, greenhouse; details: after three weeks
Protocol: as §1, §2, §3, §4, §5

Setaria [3] = assay: Pre-emergence test, greenhouse; details: after three weeks
Protocol: as §1, §2, §3, §4, §5

Avena fatua [4] = assay: Pre-emergence test, greenhouse; details: 2 000 g/ha, after three weeks
Protocol: as §1, §2, §3, §4, §5

Alopecurus [5] = assay: Post-emergence test, greenhouse; details: 2 000 g/ha, after three weeks
Protocol: as §1
(§6) To produce a suitable preparation of active compound, 1 part by weight of active compound is mixed with the stated amount of solvent, the stated amount of emulsifier is added and the concentrate is diluted with water to the desired concentration.
(§7) Test plants of a height of 5-15 cm are sprayed with the preparation of active compound such that the particular amounts of active compound desired are applied per unit area. The concentration of the spray liquor was chosen such that the particular amounts of active compound desired are applied in 1 000 l of water/ha.
as §4, §5

Echinochloa [6] = assay: Post-emergence test, greenhouse; details: after three weeks
Protocol: as §1, §6, §7, §4, §5

Setaria [7] = assay: Post-emergence test, greenhouse; details: after three weeks
Protocol: as §1, §6, §7, §4, §5

Avena fatua [8] = assay: Post-emergence test, greenhouse; details: 2 000 g/ha, after three weeks
Protocol: as §1, §6, §7, §4, §5

Sugar beet = assay: Post-emergence test, greenhouse; details: after three weeks
Protocol: as §1, §6, §7, §4, §5

Tetranychus urticae = assay: Tetranychus test (OP-resistent/dip treatment); details: 100 ppm active compound; after 7 days; bean plants dipped
Protocol: Tetranychus Test (OP-Resistent/Dip Treatment)
• Solvent: 30 parts by weight of dimethylformamide • Emulsifier: 1 part by weight of alkylaryl polyglycol ether
To produce a suitable preparation of active compound, 1 part by weight of active compound is mixed with the stated amounts of solvent and emulsifier, and the concentrate is diluted with emulsifier-containing water to the desired concentration.
Bean plants (Phaseolus vulgaris) which are heavily infested by all stages of the greenhouse […] spider mite (Tetranychus urticae) are treated by being dipped into a preparation of active compound of the desired concentration.
After the desired period of time, the effect in % is determined. 100% means that all spider mites have been killed; 0% means that none of the spider mites have been killed.

Amaranthus [9] = assay: Post-emergence test, greenhouse; details: after three weeks
Protocol: as §1, §6, §7, §4, §5

Soya = assay: Pre-emergence test, greenhouse; details: 250 g/ha, after three weeks
Protocol: as §1, §2, §3, §4, §5

Wheat = assay: Pre-emergence test, greenhouse; details: 250 g/ha, after three weeks
Protocol: as §1, §2, §3, §4, §5

Lolium = assay: Pre-emergence test, greenhouse; details: 250 g/ha, after three weeks
Protocol: as §1, §2, §3, §4, §5

Digitaria = assay: Pre-emergence test, greenhouse; details: 250 g/ha, after three weeks
Protocol: as §1, §2, §3, §4, §5

Amaranthus [10] = assay: Pre-emergence test, greenhouse; details: 500 g/ha, after three weeks
Protocol: as §1, §2, §3, §4, §5

Galium = assay: Pre-emergence test, greenhouse; details: 500 g/ha, after three weeks
Protocol: as §1, §2, §3, §4, §5

Meloidogyne incognita = assay: Meloidogyne test; details: 20 ppm active compound; after 14 days; lettuce
Protocol: Meloidogyne Test • Solvent: 30 parts by weight of dimethylformamide • Emulsifier: 1 part by weight of alkylaryl polyglycol ether To produce a suitable preparation of active compound, 1 part by weight of active compound is mixed with the stated amounts of solvent and emulsifier, and the concentrate is diluted with water to the desired concentration. Containers are filled with sand, solution of active compound, Meloidogyne incognita egg/larvae suspension and lettuce seeds. The lettuce seeds germinate and the plants develop. On the roots, galls are formed. After the desired period of time, the nematicidal action in % is determined using the formation of galls as a measure. 100% means that no galls have been found; 0% means that the number of galls on the treated plants corresponds to that on the untreated control.

CCc1cc(Br)cc(Cl)c1C1=C(O)CC(C)(C)NC1=O [I-a-11]
% damage Alopecurus (Alopecurus [1]; 2 000 g/ha): 100%
% damage Echinochloa (Echinochloa [2]; 2 000 g/ha): 100%
% damage Setaria (Setaria [3]; 2 000 g/ha): 100%
% damage Avena fatua (Avena fatua [4]): 100%
% damage Alopecurus (Alopecurus [5]): 95%
% damage Echinochloa (Echinochloa [6]; 2 000 g/ha): 100%
% damage Setaria (Setaria [7]; 2 000 g/ha): 100%
% damage Avena fatua (Avena fatua [8]): 100%
% damage Sugar beet (Sugar beet; 2 000 g/ha): 90%

CCOC(=O)OC1=C(c2cc(-c3ccc(Cl)cc3)ccc2C)C(=O)NC(C)(C)C1 [I-c-1]
kill of spider mites (Tetranychus urticae): 95%
% damage Echinochloa (Echinochloa [6]; 250 g/ha): 70%
% damage Setaria (Setaria [7]; 250 g/ha): 80%
% damage Sugar beet (Sugar beet; 250 g/ha): 0%
% damage Amaranthus (Amaranthus [9]; 250 g/ha): 80%

Cc1cc(Br)cc(Cl)c1C1=C(O)CC(C)(C)NC1=O [I-a-10]
% damage Soya (Soya): 0%
% damage Echinochloa (Echinochloa [2]; 250 g/ha): 80%
% damage Wheat (Wheat): 0%
% damage Setaria (Setaria [3]; 250 g/ha): 95%
% damage Lolium (Lolium): 100%
% damage Digitaria (Digitaria): 90%
% damage Alopecurus (Alopecurus [5]): 70%
% damage Echinochloa (Echinochloa [6]; 2 000 g/ha): 80%
% damage Setaria (Setaria [7]; 2 000 g/ha): 80%
% damage Sugar beet (Sugar beet; 2 000 g/ha): 0%
% damage Amaranthus (Amaranthus [9]; 2 000 g/ha): 70%

Cc1ccc(-c2ccc(Cl)cc2)cc1C1=C(O)CC(C)(C)NC1=O [I-a-5]
kill of spider mites (Tetranychus urticae): 99%

Cc1cc(Cl)cc(Cl)c1C1=C(O)CC(C)(C)NC1=O [I-a-3]
% damage Alopecurus (Alopecurus [1]; 500 g/ha): 70%
% damage Amaranthus (Amaranthus [10]): 70%
% damage Galium (Galium): 100%

Cc1ccc(Br)cc1C1=C(O)CC(C)(C)NC1=O [I-a-4]
kill (nematicidal action, formation of galls as measure) (Meloidogyne incognita): 95%
